We go through 14 substances from patent US10323063B2, “Advanced macromolecule transduction domain (aMTD) sequences for improvement of cell-permeability, polynucleotides encoding the same, method to identify the unique features of aMTDs comprising the same, method to develop the aMTD sequences comprising the same” (CELLIVERY THERAPEUTICS, INC., priority 2014, dated 2019).

The assay concerns RAW 264.7 cells. The experiment in a line: Quantitative cell-permeability of FITC-labeled aMTD- or rPeptide-fused CRA recombinant proteins by flow cytometry. As to conditions: for Relative Ratio to aMTD AVE: cell-permeability of rPeptide relative to the average of 240 aMTDs. Type of assay: cell-based. From the text:
The aMTDs and rPeptides were fluorescently labeled and compared based on the critical factors for cell-permeability by using flow cytometry and confocal laser scanning microscopy (FIG. 5 to 8). The cellular uptake of the peptide-fused non-functional cargo recombinant proteins could quantitatively be evaluated in flow cytometry, while confocal laser scanning microscopy allows intracellular uptake to be assessed visually. The analysis included recombinant proteins fused to a negative control [rP38] that has opposite characteristics (hydrophilic and aromatic sequence: YYNQSTCGGQCY) to the aMTDs (hydrophobic and aliphatic sequences). Relative cell-permeability (relative fold) of aMTDs to the negative control was also analyzed (TABLE 39 and FIG. 9).
Geometric means of negative control (histidine-tagged rP38-fused CRA recombinant protein) subtracted by that of naked protein (histidine-tagged CRA protein) lacking any peptide (rP38 or aMTD) was standardized as relative fold of 1.
For quantitative cell-permeability, the aMTD- or rPeptide-fused recombinant proteins were conjugated to fluorescein isothiocyanate (FITC) according to the manufacturer's instructions (Sigma-Aldrich, St. Louis, Mo.). RAW 264.7 cells were treated with 10 μM FITC-labeled recombinant proteins for 1 hour at 37° C., washed three times with cold PBS, treated with 0.25% tripsin/EDTA (Sigma-Aldrich, St. Louis, Mo.) for 20 minutes at 37° C. to remove cell-surface bound proteins. Cell-permeability of these recombinant proteins were analyzed by flow cytometry (Guava, Millipore, Darmstadt, Germany) using the FlowJo cytometric analysis software (FIG. 5 to 6). The relative cell-permeability of aMTDs were measured and compared with the negative control (rP38) and reference hydrophobic CPPs (MTM12 and MTD85) (TABLE 47).
In general terms: A flow cytometer gives signals particle by particle.

Where [1] appears, read: cell-permeability of aMTD-fused CRA recombinant protein relative to negative control (A: rP38).
[2] abbreviates: cell-permeability of aMTD-fused CRA recombinant protein relative to reference CPP (B: MTM12).
Setting [3] is: cell-permeability of aMTD-fused CRA recombinant protein relative to reference CPP (C: MTD85).
The mark [4] stands for this setting: cell-permeability relative to reference CPP MTM12 (B type).
[5] abbreviates: cell-permeability relative to reference CPP MTD85 (C type).

Consider “503 (AAIIIVLPAALP; Advanced Macromolecule Transduction Domain (aMTD) Sequences for Improvement of Cell-Permeability) [compound 503]”, for which the “Relative Ratio (Fold) A” value under setting [1] is recorded as 17.6 Fold. In addition, under setting [2], the “Relative Ratio (Fold) B” value was determined as 11.8 Fold. Further, the “Relative Ratio (Fold) C” value under setting [3] amounted to 5.9 Fold.

For “543 (LLAALIAPAALP; Advanced Macromolecule Transduction Domain (aMTD) Sequences for Improvement of Cell-Permeability) [compound 543]”, the “Relative Ratio (Fold) B” value under setting [4] came out at 7.8 Fold.

Regarding “563 (ALAVIVVPALAP; Advanced Macromolecule Transduction Domain (aMTD) Sequences for Improvement of Cell-Permeability) [compound 563]”, under setting [1], the “Relative Ratio (Fold) A” value is 47.1 Fold. Also, under setting [2], the “Relative Ratio (Fold) B” value is listed as 31.4 Fold. In addition, under setting [3], the “Relative Ratio (Fold) C” value was 15.9 Fold. Turning to 606 (AAAIAAIPIIIP) [compound 606], the “Relative Ratio to aMTD AVE” value came to 0.20. For “625 (ILAAAAAPLIVP; Advanced Macromolecule Transduction Domain (aMTD) Sequences for Improvement of Cell-Permeability) [compound 625]”, the “Relative Ratio (Fold) A” value under setting [1] worked out at 20.9 Fold. The same measure, in the same setting: with “705 (IVAVALLPALAP; Advanced Macromolecule Transduction Domain (aMTD) Sequences for Improvement of Cell-Permeability) [compound 705]” the figure was 28.6 Fold.

On to “747 (VALLAIAPALAP; Advanced Macromolecule Transduction Domain (aMTD) Sequences for Improvement of Cell-Permeability) [compound 747]”, for which the “Relative Ratio (Fold) A” value under setting [1] is on record as 22.0 Fold. The “Relative Ratio (Fold) B” value under setting [2] stood at 14.8 Fold. The “Relative Ratio (Fold) C” value under setting [3] turned out to be 7.5 Fold. As to 772 (LPVAPVIPIIVP) [compound 772], the “Relative Ratio to aMTD AVE” value is 0.16. On to “787 (AVALVPVIVAAP; Advanced Macromolecule Transduction Domain (aMTD) Sequences for Improvement of Cell-Permeability) [compound 787]”, for which the “Relative Ratio (Fold) A” value under setting [1] was 29.3 Fold. Also, the “Relative Ratio (Fold) B” value under setting [2] worked out at 19.6 Fold. Moreover, the “Relative Ratio (Fold) C” value under setting [3] came to 9.9 Fold. Consider “808 (LVVLAAAPLAVP; Advanced Macromolecule Transduction Domain (aMTD) Sequences for Improvement of Cell-Permeability) [compound 808]”, for which, under “cell-permeability of aMTD-fused CRA recombinant protein relative to negative control rP38 (A type)”, the “Relative Ratio (Fold) A” value is listed as 11.5 Fold. Further, the “Relative Ratio (Fold) C” value under setting [5] came to 3.9 Fold. Under setting [4], the “Relative Ratio (Fold) B” value is 7.6 Fold. Take “825 (IVAVIVAPAVAP; Advanced Macromolecule Transduction Domain (aMTD) Sequences for Improvement of Cell-Permeability) [compound 825]”: under setting [3], the “Relative Ratio (Fold) C” value came out at 23.6 Fold. As for “826 (LVALAAPIIAVP; Advanced Macromolecule Transduction Domain (aMTD) Sequences for Improvement of Cell-Permeability) [compound 826]”, under setting [3], the “Relative Ratio (Fold) C” value stood at 16.6 Fold.

As for “849 (AVILLAPLIAAP; Advanced Macromolecule Transduction Domain (aMTD) Sequences for Improvement of Cell-Permeability) [compound 849]”, the “Relative Ratio (Fold) C” value under setting [5] is 2.8 Fold. As to “877 (VAIIAVPAVVAP; Advanced Macromolecule Transduction Domain (aMTD) Sequences for Improvement of Cell-Permeability) [compound 877]”, the “Relative Ratio (Fold) A” value under setting [1] is given as 14.0 Fold. In addition, the “Relative Ratio (Fold) B” value under setting [2] was determined as 9.4 Fold. For the same substance, under setting [3], the “Relative Ratio (Fold) C” value is 4.7 Fold.
